Source: ChEMBL document CHEMBL1201862, “PubChem BioAssay data set” (2004)
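1) Cells in 96-well plates. 2) Compound, 48 h, 5 concentrations. 3) Linear interpolation between surrounding doses. 4) Unreached endpoint = highest concentration. The concentration for 50% growth inhibition is given as GI50.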 The source made the active and inactive calls. Cut-off read from the data, not from the text of the source: active = GI50 up to about 1.1 µM and inactive = higher.

What was measured:
Assay in all cases: growth of human tumour cells (NCI), 48 h
[1] = system: DMS-114
[2] = system: DMS-273
[3] = system: KM-20L2
[4] = system: LXFL 529
[5] = system: M19-MEL
[6] = system: SNB-78
[7] = system: HOP-18
[8] = system: RXF 631
[9] = system: XF498

| Structure (SMILES) | GI50 [1] | GI50 [2] | GI50 [3] | GI50 [4] | GI50 [5] | GI50 [6] | GI50 [7] | GI50 [8] | GI50 [9] |
| --- | --- | --- | --- | --- | --- | --- | --- | --- | --- |
| O=C(O)CSc1nnc(COc2ccccc2)n1-c1ccccc1 | > 100 µM (inactive) | > 100 µM (inactive) | > 100 µM (inactive) | > 100 µM (inactive) | > 100 µM (inactive) | > 100 µM (inactive) |  |  |  |
| C=C1C(=O)O[C@@H]2C[C@@H](C)[C@@H]3C=CC(=O)[C@@]3(C)[C@@H](OC(=O)CC(=O)O[C@H]3[C@@H]4C(=C)C(=O)O[C@@H]4C[C@@H](C)[C@@H]4C=CC(=O)[C@]43C)[C@H]12 | 0.0312 µM (active) | 0.0336 µM (active) | 0.0771 µM (active) | < 0.0117 µM (active) | 0.0141 µM (active) | 0.0153 µM (active) | 0.11 µM (active) | 0.0989 µM (active) | 0.0213 µM (active) |
| Cc1ccc(NC(=O)CC2SC(=N)NC2=O)cc1C (configuration not stated) |  |  | > 100 µM (inactive) | > 100 µM (inactive) |  | > 100 µM (inactive) |  | > 100 µM (inactive) | > 100 µM (inactive) |
| COc1ccc2[nH]c3c(c2c1)[C@H](c1ccccc1)C[C@@H]1C(=O)N(c2ccccc2)C(=O)[C@H]31 | 29.1 µM (inactive) | 47.8 µM (inactive) | 64.9 µM (inactive) | 43.2 µM (inactive) | > 100 µM (inactive) | 44.5 µM (inactive) | 2.54 µM (inactive) | 45.1 µM (inactive) | 23 µM (inactive) |
| CCOC(=O)c1oc2ccc([N+](=O)[O-])c3c2c1CCC3 | 36.9 µM (inactive) | 58.3 µM (inactive) | > 100 µM (inactive) | > 100 µM (inactive) | > 100 µM (inactive) | 34.8 µM (inactive) | 6.55 µM (inactive) | 37.2 µM (inactive) | 20.7 µM (inactive) |
| O=C(CO[N+](=O)[O-])OC/C=C/c1ccccc1 | > 100 µM (inactive) | > 100 µM (inactive) | > 100 µM (inactive) | > 100 µM (inactive) | > 100 µM (inactive) |  |  |  |  |
| Brc1ccc(N2C[N+](c3ccc(Br)cc3)=NC(c3ccccc3)=N2)cc1 | 19.5 µM (inactive) | 8.65 µM (inactive) | 18.2 µM (inactive) | 11.1 µM (inactive) | 14.3 µM (inactive) | 31.2 µM (inactive) | 14.8 µM (inactive) |  | 20.6 µM (inactive) |
| C[N+]1=C(c2cccnc2/C=N/O)OCC1(C)C | > 100 µM (inactive) | > 100 µM (inactive) | > 100 µM (inactive) | > 100 µM (inactive) | > 100 µM (inactive) | > 100 µM (inactive) | > 100 µM (inactive) |  | > 100 µM (inactive) |
| COc1ccc(C2c3cc(OC)c(OC)cc3C(Cc3ccc([N+](=O)[O-])cc3)C2c2ccc([N+](=O)[O-])cc2)cc1OC (configuration not stated) | > 100 µM (inactive) | > 100 µM (inactive) | > 100 µM (inactive) | > 100 µM (inactive) | > 100 µM (inactive) | > 100 µM (inactive) |  | > 100 µM (inactive) | 48.9 µM (inactive) |
| N#CC(C#N)=c1[nH]c2cccc3c2-c2c(cccc2c3=C(C#N)C#N)[nH]1 | > 100 µM (inactive) | > 100 µM (inactive) | > 100 µM (inactive) | > 100 µM (inactive) |  | 57.4 µM (inactive) | > 100 µM (inactive) |  | > 100 µM (inactive) |
| COC(CN1C(=O)c2cccc3cccc(c23)C1=O)OC | 78 µM (inactive) | 48.9 µM (inactive) | > 100 µM (inactive) | 62.7 µM (inactive) | > 100 µM (inactive) | > 100 µM (inactive) | > 100 µM (inactive) |  | 23.1 µM (inactive) |
| CC(=O)OCC1OC(N2C(=O)[C@@H](Oc3ccccc3)[C@H]2/C=C/c2ccccc2)C(OC(C)=O)C(OC(C)=O)C1OC(C)=O (some centres not stated) | > 100 µM (inactive) | > 100 µM (inactive) | > 100 µM (inactive) | > 100 µM (inactive) | > 100 µM (inactive) | > 100 µM (inactive) |  |  | > 100 µM (inactive) |
| NC(=S)N/N=C1\CCCC\C1=C/c1ccccc1 | 37.3 µM (inactive) | 18.5 µM (inactive) | > 100 µM (inactive) | 31.4 µM (inactive) | 81.1 µM (inactive) | > 100 µM (inactive) | 38.2 µM (inactive) | 89.3 µM (inactive) |  |
| COc1ccc2[nH]c3c(C)cc([N+](=O)[O-])c(C)c3c2c1 | 23.3 µM (inactive) | 13.6 µM (inactive) | 47.5 µM (inactive) | 25.5 µM (inactive) | 21.9 µM (inactive) |  | 26.1 µM (inactive) |  | 34.2 µM (inactive) |
| O=C(c1ccc(Cl)cc1Cl)C1[C@H]2C(=O)N(c3ccc(Cc4ccc(N5C(=O)[C@@H]6ON(c7ccccc7)C(C(=O)c7ccc(Cl)cc7Cl)[C@@H]6C5=O)cc4)cc3)C(=O)[C@H]2ON1c1ccccc1 (some centres not stated) | > 50 µM (inactive) | > 50 µM (inactive) | > 50 µM (inactive) | > 50 µM (inactive) | > 50 µM (inactive) | > 50 µM (inactive) | > 50 µM (inactive) | > 50 µM (inactive) |  |
| CC(=O)NC(C=O)C(O[C@H](C)C(=O)NC(C)C(=O)NC(CCC(N)=O)C(=O)OCc1ccccc1)C(O)C(O)COC(=O)CCNc1c2ccccc2nc2cccc([N+](=O)[O-])c12 (some centres not stated) | 2.81 µM (inactive) | 2.69 µM (inactive) | 2 µM (inactive) | 1.79 µM (inactive) | 1.66 µM (inactive) | 2.58 µM (inactive) | 4.3 µM (inactive) |  | 1.83 µM (inactive) |
| CC(/C(=N\Nc1ccccc1)c1ccc(O)cc1)C1C(=O)Oc2ccccc21 (configuration not stated) | > 100 µM (inactive) | > 100 µM (inactive) | > 100 µM (inactive) | > 100 µM (inactive) | > 100 µM (inactive) |  |  |  |  |
| O=S(=O)(O)SC/C=C\CSS(=O)(=O)O | 42.7 µM (inactive) | 69.5 µM (inactive) | > 100 µM (inactive) | > 100 µM (inactive) | 98.9 µM (inactive) | > 100 µM (inactive) | > 100 µM (inactive) | 37.5 µM (inactive) | > 100 µM (inactive) |
| COc1ccc(CCC2c3cc(OC)c(OC)cc3CCN2C)cc1OC (configuration not stated) | > 100 µM (inactive) |  | > 100 µM (inactive) | > 100 µM (inactive) | > 100 µM (inactive) | > 100 µM (inactive) | > 100 µM (inactive) |  |  |
| COC(=O)CC1C[C@H](C#N)N(C(=O)c2ccccc2)C[C@@H]1CC[N+](=O)[O-] (some centres not stated) |  | > 100 µM (inactive) | > 100 µM (inactive) | > 100 µM (inactive) | > 100 µM (inactive) | > 100 µM (inactive) | > 100 µM (inactive) |  | > 100 µM (inactive) |
| CC1CC[C@@]23CCC4(C)[C@@](C=CC5[C@@]6(C)CCC(=O)C(C)(C)C6CC[C@]54C)(OC2=O)[C@@H]3[C@H]1C (some centres not stated) | 6.46 µM (inactive) |  | 15.4 µM (inactive) | 9.89 µM (inactive) | 17.9 µM (inactive) | 20 µM (inactive) |  | 21.1 µM (inactive) | 15.3 µM (inactive) |
| Cn1c(=O)nc2n(-c3cccc(F)c3)c3ccccc3nc-2c1=O |  | 13.8 µM (inactive) | 12.3 µM (inactive) | 37.8 µM (inactive) | 2.11 µM (inactive) | 23.5 µM (inactive) | 34.1 µM (inactive) |  |  |
| CCN(CC)C(=S)S [DITIOCARB SODIUM] | 0.0968 µM (active) |  | 69 µM (inactive) | > 100 µM (inactive) | 0.439 µM (active) | > 100 µM (inactive) | > 100 µM (inactive) | 3.27 µM (inactive) | 0.221 µM (active) |
| Sc1ncnc2nc[nH]c12 [MERCAPTOPURINE ANHYDROUS] | 1.67 µM (inactive) | 0.426 µM (active) | 1.92 µM (inactive) | 653 µM (inactive) | 69 µM (inactive) | 90.4 µM (inactive) | 192 µM (inactive) |  | 5.04 µM (inactive) |
| COCC(O)Cn1ccnc1[N+](=O)[O-] (configuration not stated) [MISONIDAZOLE] | > 100 µM (inactive) | > 100 µM (inactive) | > 100 µM (inactive) |  | > 100 µM (inactive) | > 100 µM (inactive) |  |  | > 100 µM (inactive) |
